Reference: PMC12528448, “Resistance to CDK7 inhibitors directed by acquired mutation of a conserved residue in cancer cells” (The EMBO Journal, 2025)
Values joined by “and” are separate entries in the source; they are usually repeats but may differ in a detail not shown here. Equal entries are not always repeated.

Legend:
LNCaP cells = test: Growth assay (SRB), LNCaP; assay type: cell-based, human
Protocol: (§1) To determine the IC50 of drug treatments on growth, cells were seeded in 96-well culture plates. Two days after seeding, the cells were treated with increasing concentrations of drugs and incubated for 4 days. Cell number was determined using the SRB assay (Skehan et al, [1990]), and IC50 values were calculated using non-linear regression curve fitting in GraphPad Prism v10. For all other growth experiments, cells were seeded into 96-well plates, and appropriate drugs were added 2 days after seeding. Cells were then incubated in an IncuCyte Zoom live-cell imager, with cell confluency measured every 6 h. Cell doubling times were determined by non-linear curve fitting (exponential growth equation) in GraphPad Prism v10.

MCF7-CDK7-D97N cells = test: Growth assay (SRB), MCF7 CDK7-D97N knock-in; assay type: cell-based, human; settings: for % Growth: MCF7 CDK7 D99N, biological reps
Procedure, shortened: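 CRISPR-Cas9 knock-in lines were treated with increasing drug concentrations two days after seeding, then grown 4 days. Cell number by SRB staining; IC50 from non-linear regression.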

LNCaP-CDK7-D97N cells = test: Growth assay (SRB), LNCaP CDK7-D97N knock-in; assay type: cell-based, human; settings: for % Growth: LNCaP CDK7 D99N
Protocol: as §1
(§2) Alt-R^TM S.p. Cas9 nuclease V3, Alt-R CRISPR-Cas9 crRNA, TracrRNA and the donor templates were obtained from Integrated DNA Technologies. […] Cells were treated with 0.7 µM of Alt-R HDR Enhancer V2 to improve HRD efficiency. Sequences of the CRISPRs in the crRNA and the donor templates are shown in the Reagents and tools table. Donor templates were designed to include non-coding substitutions to aid genome DNA PCR for identifying knock-in events and to facilitate cloning; these substitutions are noted in the Reagents and tools table.

CDK7-WT = target: T1, CDK7-WT (Homo sapiens, UniProt P50613); test: NanoBRET Target Engagement assay, K-10 tracer displacement in HEK293 cells; assay type: binding; settings: for % Occupacy: CDK7 WT, replicates N1-N3
T1 construct: expressed in transfected cells; host or cells: HEK293
Protocol: (§3) Energy transfer between the NanoLuc fusion protein and a cell-permeable fluorescent energy transfer probe facilitates quantitative determination of target engagement in live cells (Wells et al, [2020]). Assays were conducted according to this previous report, using the optimal CDK7 probe, K-10, at a concentration of 0.5 µM.
(§4) CDK4, CDK6 and CDK7 and the respective mutant sequences, obtained as synthesised DNA fragments from IDT (Leuven), were cloned by HiFi DNA assembly (New England Biolabs) into the pNLF1-N NanoLuc protein fusion vector (Promega). HEK293 cells, transiently transfected with NanoLuc-CDK fusion constructs, were used for activity determination, utilising the NanoBRET Target Engagement Intracellular Kinase Assay. A CCND1 expression construct was co-transfected with the NanoLuc-CDK4 and NanoLuc-CDK6 fusion constructs. The recommended cell-permeable energy transfer probe, K-10, was used to assess target engagement, as detailed in the manufacturer’s methods (Promega). […] The BRET ratio (mBU) was calculated as acceptor emission (590–610 nm)/donor emission (410–490 nm) × 1000. The mBU values were plotted against the energy probe concentrations to determine maximal binding (Bmax) and Kd values. BRET signal competition by CDK inhibitors was used to determine compound binding to WT and mutant CDKs. […] Inhibitor binding was determined using a fourfold dilution series. mBU values were plotted against test compound concentrations in the presence of K10 tracer. EC50 values were determined using nonlinear regression curve-fitting. Test compound occupancy (%) was calculated using the equation [1 − (x − z)/(y − z)] × 100, where x = mBU in the presence of the test compound and K-10 tracer, y = mBU with K-10 tracer and vehicle control, and z = mBU in the absence of the K-10 tracer or test compound (Wells et al, [2020]).

CDK7-D97N = target: T2, CDK7-D97N (Homo sapiens, UniProt P50613, D97N); test: as above; assay type: binding; settings: for % Occupacy: CDK7 D97N, replicates N1-N3
T2 construct: expressed in transfected cells; host or cells: HEK293
Protocol: as §3, §4

22Rv1 cells = test: Growth assay (SRB), 22Rv1; assay type: cell-based, human
Procedure, shortened: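 SRB: dosing at day 2 post-seed, rising concentrations, 4 d incubation, IC50 via non-linear fit. IncuCyte: drug at day 2, confluency read q6h, doubling time from exponential curve fit.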

22Rv1-CDK7-D97N cells = test: Growth assay (SRB), 22Rv1 CDK7-D97N knock-in pool; assay type: cell-based, human; settings: for % Growth: 22Rv1 CDK7 D99N
Protocol: as §1, §2

T2 sequence (P50613 whole entry D97N): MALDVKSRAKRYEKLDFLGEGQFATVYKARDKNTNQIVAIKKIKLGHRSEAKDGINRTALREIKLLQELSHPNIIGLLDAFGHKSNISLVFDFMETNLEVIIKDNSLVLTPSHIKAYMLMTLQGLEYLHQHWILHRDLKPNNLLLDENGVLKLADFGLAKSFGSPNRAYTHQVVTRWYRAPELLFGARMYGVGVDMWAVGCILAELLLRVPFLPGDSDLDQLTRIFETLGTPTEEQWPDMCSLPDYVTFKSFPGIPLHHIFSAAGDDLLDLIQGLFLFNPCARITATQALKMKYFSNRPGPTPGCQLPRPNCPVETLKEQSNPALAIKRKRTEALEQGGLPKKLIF
T1 sequence (P50613 whole entry): as the sequence (P50613 whole entry D97N) above, with N97D counted along it

CN(C)C/C=C/C(=O)Nc1ccc(C(=O)N[C@@]2(C)CCC[C@@H](Nc3ncc(Cl)c(-c4c[nH]c5ccccc45)n3)C2)nc1 [SY-1365]
% Growth (LNCaP cells; Log10 Conc. (nM) 0.09): 56.73% and 37.69%
% Growth (LNCaP cells; Log10 Conc. (nM) 1.29): 1.68% and -7.82%
% Growth (LNCaP cells; Log10 Conc. (nM) 2.49): -22.61% and -22.62%
% Growth (LNCaP cells; Log10 Conc. (nM) 3.70): -23.75%
% Growth (LNCaP cells; Log10 Conc. (nM) -0.52): 84.52% and 77.18%
% Growth (LNCaP cells; Log10 Conc. (nM) -1.12): 86.80% and 137.61%
% Growth (LNCaP cells; Log10 Conc. (nM) -1.72): 105.02%
Resistance (Fold) (MCF7-CDK7-D97N cells; MCF7-CDK7-D97N vs MCF7 WT): 0.19 fold
IC50 (MCF7-CDK7-D97N cells; MCF7-CDK7-D97N, 4 days, SRB): 0.17 nM
% Growth (MCF7-CDK7-D97N cells; Log10 Conc. (nM) 3.70, 4 days): -16.61%
% Growth (MCF7-CDK7-D97N cells; Log10 Conc. (nM) -1.12, 4 days): 78.15% and 70.71% and 82.37% and 82.39%
% Growth (MCF7-CDK7-D97N cells; Log10 Conc. (nM) -1.72, 4 days): 83.93% and 103.71% and 98.90%
% Growth (LNCaP-CDK7-D97N cells; Log10 Conc. (nM) 0.09): 63.76% and 49.89%
% Growth (LNCaP-CDK7-D97N cells; Log10 Conc. (nM) 0.69): 29.39% and 16.32%
% Growth (LNCaP-CDK7-D97N cells; Log10 Conc. (nM) 1.29): 15.69% and 13.01%
% Growth (LNCaP-CDK7-D97N cells; Log10 Conc. (nM) 1.89): -2.84% and -7.62%
% Growth (LNCaP-CDK7-D97N cells; Log10 Conc. (nM) 2.49): -7.57% and -9.89%
% Growth (LNCaP-CDK7-D97N cells; Log10 Conc. (nM) 3.10): -8.80% and -12.02%
% Growth (LNCaP-CDK7-D97N cells; Log10 Conc. (nM) 3.70): -8.97%
% Growth (LNCaP-CDK7-D97N cells; Log10 Conc. (nM) -0.52): 95.67% and 71.20%
% Growth (LNCaP-CDK7-D97N cells; Log10 Conc. (nM) -1.12): 99.75% and 96.82%
% Growth (LNCaP-CDK7-D97N cells; Log10 Conc. (nM) -1.72): 90.05%
Sensitivity in growth assays (LNCaP-CDK7-D97N cells; LNCaP-CDK7-D97N vs parental): remaining sensitive
EC50 (CDK7-WT; CDK7-WT, K-10 0.5 µM, HEK293): 29 nM
% Occupacy (CDK7-WT; Log10 Conc. (nM) 0.09): 5.29% and 2.02% and 1.09%
% Occupacy (CDK7-WT; Log10 Conc. (nM) 0.69): 14.34% and 11.55% and 9.36%
% Occupacy (CDK7-WT; Log10 Conc. (nM) 1.29): 40.53% and 32.34% and 29.30%
% Occupacy (CDK7-WT; Log10 Conc. (nM) 1.89): 74.64% and 88.34% and 86.64%
% Occupacy (CDK7-WT; Log10 Conc. (nM) 2.49): 98.27% and 99.01% and 95.02%
% Occupacy (CDK7-WT; Log10 Conc. (nM) 3.10): 99.51% and 100.88% and 97.39%
% Occupacy (CDK7-WT; Log10 Conc. (nM) 3.70): 102.75% and 104.94% and 102.49%
% Occupacy (CDK7-WT; Log10 Conc. (nM) 4.30): 86.99% and 86.89% and 86.73%
% Occupacy (CDK7-WT; Log10 Conc. (nM) -0.52): 10.37% and -0.26% and 2.09%
% Occupacy (CDK7-WT; Log10 Conc. (nM) -1.12): 9.68% and 0.78% and 5.84%
% Occupacy (CDK7-WT; Log10 Conc. (nM) -1.72): 8.54% and -2.37% and 7.63%
EC50 (CDK7-D97N; CDK7-D97N, K-10 0.5 µM, HEK293): 31.3 nM
% Occupacy (CDK7-D97N; Log10 Conc. (nM) 0.09): 2.93% and 3.17% and -0.97%
% Occupacy (CDK7-D97N; Log10 Conc. (nM) 0.69): 10.17% and 10.16% and 4.41%
% Occupacy (CDK7-D97N; Log10 Conc. (nM) 1.29): 36.69% and 35.14% and 27.40%
% Occupacy (CDK7-D97N; Log10 Conc. (nM) 1.89): 86.86% and 82.26% and 69.03%
% Occupacy (CDK7-D97N; Log10 Conc. (nM) 2.49): 95.98% and 95.66% and 91.52%
% Occupacy (CDK7-D97N; Log10 Conc. (nM) 3.10): 98.50% and 98.01% and 96.95%
% Occupacy (CDK7-D97N; Log10 Conc. (nM) 3.70): 100.42% and 100.34% and 99.95%
% Occupacy (CDK7-D97N; Log10 Conc. (nM) 4.30): 97.72% and 96.80% and 96.75%
% Occupacy (CDK7-D97N; Log10 Conc. (nM) -0.52): -0.36% and 0.88% and 0.71%
% Occupacy (CDK7-D97N; Log10 Conc. (nM) -1.12): 3.66% and 1.72% and -0.86%
% Occupacy (CDK7-D97N; Log10 Conc. (nM) -1.72): 3.68% and 0.83% and -1.37%
Difference in EC50 values for mutant and WT CDK7 (CDK7-D97N; NanoBRET): no significant difference
% Growth (22Rv1 cells; 22Rv1, Log10 Conc. (nM) 0.09): 53.71% and 72.88%
% Growth (22Rv1 cells; 22Rv1, Log10 Conc. (nM) 0.69): 19.90% and 19.70%
% Growth (22Rv1 cells; 22Rv1, Log10 Conc. (nM) 1.29): 16.91% and 19.74%
% Growth (22Rv1 cells; 22Rv1, Log10 Conc. (nM) 1.89): -7.92% and -2.43%
% Growth (22Rv1 cells; 22Rv1, Log10 Conc. (nM) 2.49): -5.73% and -3.13%
% Growth (22Rv1 cells; 22Rv1, Log10 Conc. (nM) 3.10): 1.12%
% Growth (22Rv1 cells; 22Rv1, Log10 Conc. (nM) 3.70): -11.26%
% Growth (22Rv1 cells; 22Rv1, Log10 Conc. (nM) -0.52): 94.30% and 92.75%
% Growth (22Rv1 cells; 22Rv1, Log10 Conc. (nM) -1.12): 97.77% and 104.48%
% Growth (22Rv1 cells; 22Rv1, Log10 Conc. (nM) -1.72): 103.08%
% Growth (22Rv1 cells; 22Rv1, Log10 Conc. (nM) 0.09, 4 days, biological reps): 64.96% and 59.63%
% Growth (22Rv1 cells; 22Rv1, Log10 Conc. (nM) 0.69, 4 days, biological reps): 28.69% and 25.19%
% Growth (22Rv1 cells; 22Rv1, Log10 Conc. (nM) 1.29, 4 days, biological reps): 21.21% and 16.89%
% Growth (22Rv1 cells; 22Rv1, Log10 Conc. (nM) 1.89, 4 days, biological reps): 0.26% and -4.14%
% Growth (22Rv1 cells; 22Rv1, Log10 Conc. (nM) 2.49, 4 days, biological reps): 1.87% and -4.53%
% Growth (22Rv1 cells; 22Rv1, Log10 Conc. (nM) 3.10, 4 days, biological reps): -0.83% and -4.41%
% Growth (22Rv1 cells; 22Rv1, Log10 Conc. (nM) 3.70, 4 days, biological reps): 0.68% and -4.68%
% Growth (22Rv1 cells; 22Rv1, Log10 Conc. (nM) -0.52, 4 days, biological reps): 89.73% and 90.72%
% Growth (22Rv1 cells; 22Rv1, Log10 Conc. (nM) -1.12, 4 days, biological reps): 93.97% and 90.45%
Sensitivity in growth assays (22Rv1-CDK7-D97N cells; 22Rv1-CDK7-D97N vs parental): remaining sensitive
% Growth (22Rv1-CDK7-D97N cells; Log10 Conc. (nM) 0.09): 48.76% and 39.48%
% Growth (22Rv1-CDK7-D97N cells; Log10 Conc. (nM) 0.69): 32.85% and 26.42%
% Growth (22Rv1-CDK7-D97N cells; Log10 Conc. (nM) 1.29): 16.40% and 13.77%
% Growth (22Rv1-CDK7-D97N cells; Log10 Conc. (nM) 1.89): -9.18% and -1.73%
% Growth (22Rv1-CDK7-D97N cells; Log10 Conc. (nM) 3.70): -12.72%
% Growth (22Rv1-CDK7-D97N cells; Log10 Conc. (nM) -0.52): 87.25% and 62.47%
% Growth (22Rv1-CDK7-D97N cells; Log10 Conc. (nM) -1.12): 95.17% and 93.47%
% Growth (22Rv1-CDK7-D97N cells; Log10 Conc. (nM) -1.72): 98.87%
